From US20070128217A1 (priority 2003, published 2007)

Tests used:
[1] = test system: rabbit serum obtained by immunizing a rabbit with the SARS-CoV strain Frankfurt 1; assay type: binding; parameters: Binding of a rabbit serum to linear peptides / Binding of a rabbit serum to looped peptides / Rabbit serum linear peptides / Rabbit serum looped peptides / Binding of a rabbit serum to linear peptides of protein N of SARS-CoV Urbani (Rabbit serum linear peptides) / Binding of a rabbit serum to looped/cyclic peptides of protein N of SARS-CoV Urbani (Rabbit serum looped peptides): unit not given here
[2] = test system: antibodies in sera from SARS patients (sera 1a, 1b, 2, 6, 37, 62, London, SARS-yellow, SARS-green); assay type: binding, human; parameters: Binding of serum 6 to linear peptides of protein X1 of SARS-CoV Urbani / Binding of serum 37 to linear peptides of protein X1 of SARS-CoV Urbani / Binding of serum 6 to looped/cyclic peptide (PEPSCAN-ELISA) / Binding of serum 37 to looped/cyclic peptide (PEPSCAN-ELISA) / Binding of serum 37 to looped/cyclic peptides of protein X1 of SARS-CoV Urbani / Binding of serum 6 to linear peptides of protein X2 / Binding of serum 37 to linear peptides of protein X2 / Binding of serum 37 to looped/cyclic peptides of protein X2 of SARS-CoV Urbani / Binding of serum 6 to linear peptides of protein M of SARS-CoV Urbani / Binding of serum 37 to linear peptides of protein M of SARS-CoV Urbani / Binding of serum 6 to looped/cyclic peptides of protein M of SARS-CoV Urbani / Binding of serum 37 to looped/cyclic peptides of protein M of SARS-CoV Urbani / Binding of serum 6 to linear peptides of protein X3 of SARS-CoV Urbani / Binding of serum 37 to linear peptides of protein X3 of SARS-CoV Urbani / Binding of serum 37 to looped/cyclic peptides of protein X3 of SARS-CoV Urbani / Binding of serum 6 to linear peptides of protein X4 of SARS-CoV Urbani / Binding of serum 37 to linear peptides of protein X4 of SARS-CoV Urbani / Binding of serum 37 to looped/cyclic peptides of protein X4 of SARS-CoV Urbani / Binding of serum 6 to linear peptides of protein X5 of SARS-CoV Urbani / Binding of serum 37 to linear peptides of protein X5 of SARS-CoV Urbani / Binding of serum 37 to looped/cyclic peptides of protein X5 of SARS-CoV Urbani / Binding of serum 6 to linear peptides of protein N of SARS-CoV Urbani / Binding of serum 37 to linear peptides of protein N of SARS-CoV Urbani / Binding of serum 6 to linear peptide (PEPSCAN-ELISA) / Binding of serum 1a to looped/cyclic peptides of protein N of SARS-CoV Urbani / Binding of serum 1b to looped/cyclic peptides of protein N of SARS-CoV Urbani / Binding of serum 2 to looped/cyclic peptides of protein N of SARS-CoV Urbani / Binding of serum 6 to looped/cyclic peptides of protein N of SARS-CoV Urbani / Binding of serum 37 to looped/cyclic peptides of protein N of SARS-CoV Urbani / Binding of serum 62 to looped/cyclic peptides of protein N of SARS-CoV Urbani / Binding of serum London to looped/cyclic peptides of protein N of SARS-CoV Urbani / Binding of serum SARS-green to looped/cyclic peptides of protein N of SARS-CoV Urbani: unit not given here
[3] = test system: recombinant human anti-SARS-CoV antibody 03-018; assay type: binding; parameters: Binding of antibody 03-018 to linear peptides of the N protein of SARS-CoV Urbani / Binding of antibody 03-018 to looped/cyclic peptides of the N protein of SARS-CoV Urbani: unit not given here
[4] = test system: control sera (pooled serum of ten healthy LUMC hospital workers; commercial negative donor pooled serum from the Dutch bloodbank); assay type: binding, human; parameters: Binding of Control serum LUMC to linear peptides / Binding of Control serum Blood-bank to linear peptides / Binding of Control serum LUMC to looped peptides / Binding of Control Serum Blood-Bank to Looped peptides / Binding of Control serum LUMC to linear peptides of the protein M of SARS-CoV Urbani / Binding of Control serum Blood-bank to linear peptides of the protein M of SARS-CoV Urbani / Binding of Control serum LUMC to looped peptides of the protein M of SARS-CoV Urbani / Binding of Control Serum Blood-Bank to Looped peptides of the protein M of SARS-CoV Urbani: unit not given here

Sequence | Binding of a rabbit serum to linear peptides of protein N of SARS-CoV Urbani (Rabbit serum linear peptides) [1] | Binding of a rabbit serum to looped/cyclic peptides of protein N of SARS-CoV Urbani (Rabbit serum looped peptides) [1] | Binding of serum 1a to linear peptides of protein N of SARS-CoV Urbani [2] | Binding of serum 1a to looped/cyclic peptides of protein N of SARS-CoV Urbani [2] | Binding of serum 1b to linear peptides of protein N of SARS-CoV Urbani [2] | Binding of serum 1b to looped/cyclic peptides of protein N of SARS-CoV Urbani [2] | Binding of serum 2 to linear peptides of protein N of SARS-CoV Urbani [2] | Binding of serum 2 to looped/cyclic peptides of protein N of SARS-CoV Urbani [2] | Binding of serum 6 to linear peptides of protein N of SARS-CoV Urbani [2] | Binding of serum 6 to looped/cyclic peptides of protein N of SARS-CoV Urbani [2] | Binding of serum 37 to linear peptides of protein N of SARS-CoV Urbani [2] | Binding of serum 37 to looped/cyclic peptides of protein N of SARS-CoV Urbani [2] | Binding of serum 62 to linear peptides of protein N of SARS-CoV Urbani [2] | Binding of serum 62 to looped/cyclic peptides of protein N of SARS-CoV Urbani [2] | Binding of serum London to linear peptides of protein N of SARS-CoV Urbani [2] | Binding of serum London to looped/cyclic peptides of protein N of SARS-CoV Urbani [2] | Binding of serum SARS-green to linear peptides of protein N of SARS-CoV Urbani [2] | Binding of serum SARS-green to looped/cyclic peptides of protein N of SARS-CoV Urbani [2] | Binding of serum SARS-yellow to linear peptides of protein N of SARS-CoV Urbani [2] | Binding of serum SARS-yellow to looped/cyclic peptides of protein N of SARS-CoV Urbani [2] | other results
NQRSAPRITFGGPTD | 0.3 | 0.4 | 0.2 | 0.4 | 0.1 | 0.3 | 0.1 | 0.4 | 0.1 | 0.2 | 0.7 | 0.6 | 0.6 | 0.4 | 0.5 | 0.4 | 0.3 | 0.5 | 0.5 | 0.7 | Recognition of the peptide by antibody 03-018 [3]: recognized; Binding of Control Serum Blood-Bank to Looped peptides [4]: 0.6; Binding of Control serum Blood-bank to linear peptides [4]: 0.6; Binding of Control serum LUMC to linear peptides [4]: 0.5; Binding of Control serum LUMC to looped peptides [4]: 0.7
NSGPDDQIGYYRRAT | 0.1 | 0.5 | 0.2 | 0.5 | 0.1 | 0.3 | 0.1 | 0.5 | 0.2 | 0.3 | 0.7 | 1.0 | 0.6 | 0.7 | 0.4 | 0.5 | 0.1 | 0.5 | 0.5 | 0.6 | Binding of antibody 03-018 to linear peptides of the N protein of SARS-CoV Urbani [3]: 0.1; Binding of antibody 03-018 to looped/cyclic peptides of the N protein of SARS-CoV Urbani [3]: 0.2; Binding of Control Serum Blood-Bank to Looped peptides [4]: 0.7; Binding of Control serum Blood-bank to linear peptides [4]: 0.7; Binding of Control serum LUMC to linear peptides [4]: 0.7; Binding of Control serum LUMC to looped peptides [4]: 0.8
NTASWFTALTQHGKE | 0.1 | 0.1 | 0.2 | 0.2 | 0.1 | 0.2 | 0.1 | 0.2 | 0.1 | 0.1 | 0.7 | 0.4 | 0.5 | 0.3 | 0.4 | 0.3 | 0.4 | 0.3 | 0.5 | 0.3 | Binding of antibody 03-018 to linear peptides of the N protein of SARS-CoV Urbani [3]: 0.1; Binding of antibody 03-018 to looped/cyclic peptides of the N protein of SARS-CoV Urbani [3]: 0.2; Binding of Control Serum Blood-Bank to Looped peptides [4]: 0.5; Binding of Control serum Blood-bank to linear peptides [4]: 0.5; Binding of Control serum LUMC to linear peptides [4]: 0.6; Binding of Control serum LUMC to looped peptides [4]: 0.4
